Assay results as given in patent publication US12310364B2, “Safened compositions comprising pyridine carboxylate herbicides and cloquintocet” (Corteva Agriscience LLC, priority 2018, dated 2025).
Several values for one entry are separate records, joined by “and”; a condition that tells them apart may be missing. Identical values can stand only once.

Tests used:
Format in all cases: in vivo
[1] = test system: Triticum aestivum (winter wheat), TRZAW; test: Greenhouse postemergence safening trial, visual injury on winter wheat
Experimental: (§1) Greenhouse Trial Methodology-Evaluation of Postemergence Herbicidal […] in Crops […] When required to ensure good germination and healthy plants, a fungicide treatment and/or other chemical or physical treatment was applied. The plants were grown for 7-36 days (d) in a greenhouse with an approximate 14-hour (h) photoperiod which was maintained at about 23° C. during the day and 22° C. during the night. Nutrients and water were added on a regular basis and supplemental lighting was provided with overhead metal halide 1000-Watt lamps as necessary. The plants were employed for testing when they reached the second or third true leaf stage. Emulsifiable concentrates of each of each pyridine carboxylate herbicide (Compound A or Compound B) were prepared at 100 grams acid equivalent per liter (g ae/L). […] The concentrated stock solutions were further diluted with an aqueous mixture of 1.25% […] or MSO® Concentrate with LECI-TECH® to obtain stock solutions at reduced application rates for each herbicide. Spray solutions of the herbicide combinations (Compound A or Compound B plus safener) were prepared by adding weighed amounts or aliquots of the safener to the stock solutions of Compound A or Compound B to form 12-mL spray solutions in two-way combinations. […] Control plants were sprayed in the same manner with the solvent blank. All herbicide (component a) application rates are given as “g ae/ha” and all safener (component b) application rates are given as “g ai/ha.” The treated plants and control plants were placed in a greenhouse as described above and watered by sub-irrigation to prevent wash-off of the test compounds.

[2] = test system: Avena sativa (common oat), AVESA; test: Greenhouse postemergence safening trial, visual injury on common oat
Experimental: as §1

[3] = test system: Anthemis arvensis (field chamomile), ANTAR; test: Greenhouse postemergence trial, visual injury on field chamomile
Excerpt: (§2) Greenhouse Trial Methodology—Evaluation of Postemergence Herbicidal Safening in Crops
(§3) Seeds of the desired test plant species were planted in a 90:10% v/v (volume/volume) mixture of PRO-MIX® BX (Premier Tech Horticulture, Quakertown, PA, USA) and PROFILE® GREENS GRADE™ (Profile Products LLC, Buffalo Grove, IL, USA) planting mixture, which typically has a pH of 5.2 to 6.2 and an organic matter content of at least 50 percent, in plastic pots with a surface area of 103.2 square centimeters (cm^2). When required to ensure good germination and healthy plants, a fungicide treatment and/or other chemical or physical treatment was applied. The plants were grown for 7-36 days (d) in a greenhouse with an approximate 14-hour (h) photoperiod which was maintained at about 23° C. during the day and 22° C. during the night. Nutrients and water were added on a regular basis and supplemental lighting was provided with overhead metal halide 1000-Watt lamps as necessary. The plants were employed for testing when they reached the second or third true leaf stage.
(§4) Emulsifiable concentrates of each of each pyridine carboxylate herbicide (Compound A or Compound B) were prepared at 100 grams acid equivalent per liter (g ae/L). An aliquot of each emulsifiable concentrate was placed in a 25 mL glass vial and diluted with an aqueous mixture of 1.25% (v/v) ACTIROB® B esterified rapeseed oil (Bayer Crop Science, Research Triangle Park, NC, USA) or MSO® Concentrate with LECI-TECH® methylated soybean oil (Loveland Products, Loveland, CO, USA) to obtain concentrated stock solutions at the highest application rate for each herbicide, based upon a 12 milliliter (mL) application volume at a rate of 187 liters per hectare (L/ha). The concentrated stock solutions were further diluted with an aqueous mixture of 1.25% v/v ACTIROB® B or MSO® Concentrate with LECI-TECH® to obtain stock solutions at reduced application rates for each herbicide. Spray solutions of the herbicide combinations (Compound A or Compound B plus safener) were prepared by adding weighed amounts or aliquots of the safener to the stock solutions of Compound A or Compound B to form 12-mL spray solutions in two-way combinations.
(§5) The spray solutions were applied to the plant material with an overhead Mandel track sprayer equipped with 8002E nozzles calibrated to deliver 187 L/ha over an application area of 0.503 square meters (m^2) at a spray height of 18 inches (43 centimeters (cm)) above the average plant canopy. Control plants were sprayed in the same manner with the solvent blank. All herbicide (component a) application rates are given as “g ae/ha” and all safener (component b) application rates are given as “g ai/ha.”
(§6) The treated plants and control plants were placed in a greenhouse as described above and watered by sub-irrigation to prevent wash-off of the test compounds. After 20-22 d, the condition of the test plants as compared with that of the control plants was determined visually and scored on a scale of 0 to 100 percent where 0 corresponds to no injury and 100 corresponds to complete kill.

maize (ZEAMX) = test: Greenhouse postemergence safening trial, visual injury on maize
Excerpt: as §2, §3, §4, §5, §6

rice (ORYSA) = test: Greenhouse postemergence safening trial, visual injury on rice; conditions: Table 19
Excerpt: as §2, §3
as §4, with “combinations. […]” for “combinations.”
as §6

[4] = test system: pigweed (AMARE, Amaranthus retroflexus); test: Greenhouse postemergence trial, visual injury on pigweed
Excerpt: as §2, §3, §4, §5, §6

[5] = test system: common lambsquarters (CHEAL, Chenopodium album L.); test: Greenhouse postemergence trial, visual injury on common lambsquarters; conditions: Table 19
Excerpt: as §2, §3
as §4, with “combinations. […]” for “combinations.”
as §6

[6] = test system: large crabgrass (DIGSA, Digitaria sanguinalis); test: Greenhouse postemergence trial, visual injury on large crabgrass; conditions: Table 19
Excerpt: as §2, §3
as §4, with “combinations. […]” for “combinations.”
as §6

[7] = test system: kochia (KCHSC, Kochia scoparia); test: Greenhouse postemergence trial, visual injury on kochia; conditions: Table 19
Excerpt: as §2, §3
as §4, with “combinations. […]” for “combinations.”
as §6

[8] = test system: Italian ryegrass (LOLMU, Lolium multiflorum); test: Greenhouse postemergence trial, visual injury on Italian ryegrass; conditions: Table 19
Excerpt: as §2, §3
as §4, with “combinations. […]” for “combinations.”
as §6

[9] = test system: giant foxtail (SETFA, Setaria faberi); test: Greenhouse postemergence trial, visual injury on giant foxtail; conditions: Table 19
Excerpt: as §2, §3
as §4, with “combinations. […]” for “combinations.”
as §6

[10] = test system: Johnson grass (SORHA, Sorghum halepense); test: Greenhouse postemergence trial, visual injury on Johnson grass; conditions: Table 19
Excerpt: as §2, §3
as §4, with “combinations. […]” for “combinations.”
as §6

[11] = CQC-mexyl 5 g/ha alone, Table 15
[12] = CQC-mexyl 10 g/ha alone, Table 15
[13] = CQC-mexyl 20 g/ha alone, Table 15
[14] = CQC-mexyl 20 g/ha alone, Table 19
[15] = CQC-mexyl 40 g/ha alone, Table 14
[16] = CQC-mexyl 40 g/ha alone, Table 15
[17] = CQC-mexyl 40 g/ha alone, Table 19
[18] = CQC-mexyl 80 g/ha alone, Table 19
[19] = CQC-mexyl 20 g/ha alone, Table 17
[20] = CQC-mexyl 40 g/ha alone, Table 17
[21] = CQC-mexyl 80 g/ha alone, Table 17
[22] = CQC-mexyl 120 g/ha alone, Table 17
[23] = Compound A 20 g/ha alone, Table 15
[24] = Compound A 20 g/ha alone, Table 19
[25] = Compound A 40 g/ha alone, Table 14
[26] = Compound A 40 g/ha alone, Table 17
[27] = Compound A 40 g/ha alone, Table 18

## CCCCCC(C)OC(=O)COc1ccc(Cl)c2cccnc12 (stereo not drawn) [CQC-mexyl, cloquintocet-mexyl]
[1]; [11]
  % visual injury, Ob: 0%
[1]; [12]
  % visual injury, Ob: 0%
[1]; CQC-mexyl 10 g/ha alone, Table 16
  % visual injury, Ob: 0%
[1]; [13]
  % visual injury, Ob: 0%
[1]; CQC-mexyl 20 g/ha alone, Table 16
  % visual injury, Ob: 0%
[1]; [14]
  % visual injury, Ob: 0%
[1]; [15]
  % visual injury, Ob: 0%
[1]; [16]
  % visual injury, Ob: 0%
[1]; CQC-mexyl 40 g/ha alone, Table 16
  % visual injury, Ob: 0%
[1]; [17]
  % visual injury, Ob: 0%
[1]; CQC-mexyl 80 g/ha alone, Table 16
  % visual injury, Ob: 0%
[1]; [18]
  % visual injury, Ob: 0%
[1]; safener alone 40 g/ha
  % visual injury, Ob: 0%
[2]; [15]
  % visual injury, Ob: 0%
[2]; safener alone 40 g/ha
  % visual injury, Ob: 0%
[3]; [11]
  % visual injury, Ob: 0%
[3]; [12]
  % visual injury, Ob: 0%
[3]; [13]
  % visual injury, Ob: 0%
[3]; [16]
  % visual injury, Ob: 0%
Maize (ZEAMX); [19]
  % visual injury, Ob: 0%
Maize (ZEAMX); [14]
  % visual injury, Ob: 0%
Maize (ZEAMX); [20]
  % visual injury, Ob: 0%
Maize (ZEAMX); [17]
  % visual injury, Ob: 0%
Maize (ZEAMX); [21]
  % visual injury, Ob: 0%
Maize (ZEAMX); [18]
  % visual injury, Ob: 0%
Maize (ZEAMX); [22]
  % visual injury, Ob: 0%
Rice (ORYSA); CQC-mexyl 20 g/ha alone
  % visual injury, Ob: 0%
Rice (ORYSA); CQC-mexyl 40 g/ha alone
  % visual injury, Ob: 0%
Rice (ORYSA); CQC-mexyl 80 g/ha alone
  % visual injury, Ob: 0%
[4]; [19]
  % visual injury, Ob: 0%
[4]; [14]
  % visual injury, Ob: 0%
[4]; [20]
  % visual injury, Ob: 0%
[4]; [17]
  % visual injury, Ob: 0%
[4]; [21]
  % visual injury, Ob: 0%
[4]; [18]
  % visual injury, Ob: 0%
[4]; [22]
  % visual injury, Ob: 0%
[5]; CQC-mexyl 20 g/ha alone
  % visual injury, Ob: 0%
[5]; CQC-mexyl 40 g/ha alone
  % visual injury, Ob: 0%
[5]; CQC-mexyl 80 g/ha alone
  % visual injury, Ob: 0%
[6]; CQC-mexyl 20 g/ha alone
  % visual injury, Ob: 0%
[6]; CQC-mexyl 40 g/ha alone
  % visual injury, Ob: 0%
[6]; CQC-mexyl 80 g/ha alone
  % visual injury, Ob: 0%
[7]; CQC-mexyl 20 g/ha alone
  % visual injury, Ob: 0%
[7]; CQC-mexyl 40 g/ha alone
  % visual injury, Ob: 0%
[7]; CQC-mexyl 80 g/ha alone
  % visual injury, Ob: 0%
[8]; CQC-mexyl 20 g/ha alone
  % visual injury, Ob: 0%
[8]; CQC-mexyl 40 g/ha alone
  % visual injury, Ob: 0%
[8]; CQC-mexyl 80 g/ha alone
  % visual injury, Ob: 0%
[9]; CQC-mexyl 20 g/ha alone
  % visual injury, Ob: 0%
[9]; CQC-mexyl 40 g/ha alone
  % visual injury, Ob: 0%
[9]; CQC-mexyl 80 g/ha alone
  % visual injury, Ob: 0%
[10]; CQC-mexyl 20 g/ha alone
  % visual injury, Ob: 0%
[10]; CQC-mexyl 40 g/ha alone
  % visual injury, Ob: 0%
[10]; CQC-mexyl 80 g/ha alone
  % visual injury, Ob: 0%

## N#CCOC(=O)c1nc(-c2ccc3cc[nH]c3c2F)c(F)c(N)c1Cl [Compound A, cyanomethyl 4-amino-3-chloro-5-fluoro-6-(7-fluoro-1H-indol-6-yl)pyridine-2-carboxylate]
[1]; [23]
  % visual injury, Ob: 20%
[1]; [24]
  % visual injury, Ob: 25%
[1]; [25]
  % visual injury, Ob: 35%
[1]; Compound A 40 g/ha alone, Table 16
  % visual injury, Ob: 35%
[1]; herbicide alone 20 g/ha
  % visual injury, Ob: 20%
[1]; herbicide alone 40 g/ha
  % visual injury Δ: 0%
  % visual injury, Ob: 35% and 25%
[2]; [25]
  % visual injury, Ob: 0%
[2]; herbicide alone 40 g/ha
  % visual injury, Ob: 0%
[3]; [23]
  % visual injury, Ob: 95%
[3]; herbicide alone 20 g/ha
  % visual injury, Ob: 95%
Maize (ZEAMX); [24]
  % visual injury, Ob: 13%
Maize (ZEAMX); [26]
  % visual injury, Ob: 55%
Maize (ZEAMX); [27]
  % visual injury, Ob: 55%
Rice (ORYSA); Compound A 20 g/ha alone
  % visual injury, Ob: 10%
[4]; [24]
  % visual injury, Ob: 93%
[4]; [26]
  % visual injury, Ob: 100%
[4]; [27]
  % visual injury, Ob: 100%
[5]; Compound A 20 g/ha alone
  % visual injury, Ob: 88%
[6]; Compound A 20 g/ha alone
  % visual injury, Ob: 30%
[7]; Compound A 20 g/ha alone
  % visual injury, Ob: 97%
[8]; Compound A 20 g/ha alone
  % visual injury, Ob: 5%
[9]; Compound A 20 g/ha alone
  % visual injury, Ob: 65%
[10]; Compound A 20 g/ha alone
  % visual injury, Ob: 0%
